Source: article PMC9090415, “Discovery of small molecule inhibitors of Plasmodium falciparum apicoplast DNA polymerase” (Journal of Enzyme Inhibition and Medicinal Chemistry, 2022)

Biological target: P. falciparum apicoplast DNA polymerase (Pf-apPOL) (Plasmodium falciparum, UniProt Q8ILY1)
Assay: Fluorescence-based high-throughput DNA polymerase assay (molecular beacon), primary screen and dose-response;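 on % inhibition ApPOL 90': test concentration in µM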;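 on % inhibition apPOL 180': test concentration in µM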
Format: biochemical
Settings: for DNA Pol: unit not given, 90 min, 10 µM
Procedure, shortened: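 Single-point screening used 10 µM compound with 20 nM polymerase, 20 nM hairpin substrate and 6 µM dNTPs for 90 min at 25 °C. Confirmatory titrations (2.5–80 µM) followed fluorescence at three times, and IC50 was derived from a fit including a cooperativity term n.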

P. falciparum apicoplast DNA polymerase (Pf-apPOL), sequence (Q8ILY1 entry or part of it): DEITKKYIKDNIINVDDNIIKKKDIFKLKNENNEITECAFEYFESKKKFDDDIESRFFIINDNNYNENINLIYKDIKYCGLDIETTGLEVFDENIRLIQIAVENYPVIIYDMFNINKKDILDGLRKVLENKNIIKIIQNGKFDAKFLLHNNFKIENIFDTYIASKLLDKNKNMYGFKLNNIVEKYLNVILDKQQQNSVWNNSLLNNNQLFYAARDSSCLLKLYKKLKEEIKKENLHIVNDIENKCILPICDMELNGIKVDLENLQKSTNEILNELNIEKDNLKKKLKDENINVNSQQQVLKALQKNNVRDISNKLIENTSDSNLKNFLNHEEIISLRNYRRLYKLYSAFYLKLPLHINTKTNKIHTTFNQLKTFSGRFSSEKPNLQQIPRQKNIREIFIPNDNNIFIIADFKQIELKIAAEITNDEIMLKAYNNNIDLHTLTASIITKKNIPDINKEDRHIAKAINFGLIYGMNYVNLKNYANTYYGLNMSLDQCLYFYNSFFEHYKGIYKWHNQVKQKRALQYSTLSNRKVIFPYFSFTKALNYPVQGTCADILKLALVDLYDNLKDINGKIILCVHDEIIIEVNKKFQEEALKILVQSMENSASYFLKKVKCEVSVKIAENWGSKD

COCCN(CCOC)Cc1c(O)ccc2c1OC(=Cc1cc(Br)ccc1OC)C2=O [KU0198471]
DNA Pol ('DNA Pol' of the 186 hits list (primary screen result)): 63 | % inhibition Apo pol 10' (DRC-1, concentration 2.5): -2.842% | % inhibition Apo pol 10' (DRC-1, concentration 5): 2.517% | % inhibition Apo pol 10' (DRC-1, concentration 10): 15.0312% | % inhibition Apo pol 10' (DRC-1, concentration 20): 43.5523% | % inhibition Apo pol 10' (DRC-1, concentration 40): 79.9378% | % inhibition Apo pol 10' (DRC-1, concentration 80): 100.142% | % inhibition Apol 90' (DRC-1, concentration 2.5): 0.2446% | % inhibition Apol 90' (DRC-1, concentration 5): 8.305% | % inhibition Apol 90' (DRC-1, concentration 10): 20.0345% | % inhibition Apol 90' (DRC-1, concentration 20): 57.0182% | % inhibition Apol 90' (DRC-1, concentration 40): 88.9313% | % inhibition Apol 90' (DRC-1, concentration 80): 100.102% | % inhibition apPOL 180' (DRC-1, concentration 2.5): 3.8606% | % inhibition apPOL 180' (DRC-1, concentration 5): 14.5947% | % inhibition apPOL 180' (DRC-1, concentration 10): 28.8657% | % inhibition apPOL 180' (DRC-1, concentration 20): 74.003% | % inhibition apPOL 180' (DRC-1, concentration 40): 99.2826% | % inhibition apPOL 180' (DRC-1, concentration 80): 101.453% | % inhibition Apo pol 5' (DRC-2, 5', concentration 2.5 (unit not given)): 10% | % inhibition Apol 40' (DRC-2, 40', concentration 2.5 (unit not given)): 10% | % inhibition Apo pol 5' (DRC-2, 5', concentration 2.5): 10% | % inhibition Apo pol 5' (DRC-2, 5', concentration 5): 10% | % inhibition Apo pol 5' (DRC-2, 5', concentration 5 (unit not given)): 10% | % inhibition Apo pol 5' (DRC-2, 5', concentration 10): 33% | % inhibition Apo pol 5' (DRC-2, 5', concentration 20): 48% | % inhibition Apo pol 5' (DRC-2, 5', concentration 40): 59% | % inhibition Apo pol 5' (DRC-2, 5', concentration 80): 60% | % inhibition Apol 40' (DRC-2, 40', concentration 2.5): 10% | % inhibition Apol 40' (DRC-2, 40', concentration 5): 6% | % inhibition Apol 40' (DRC-2, 40', concentration 10): 36% | % inhibition Apol 40' (DRC-2, 40', concentration 20): 53% | % inhibition Apol 40' (DRC-2, 40', concentration 40): 73% | % inhibition Apol 40' (DRC-2, 40', concentration 80): 79% | % inhibition ApPOL 90' (DRC-2, concentration 2.5): 10% | % inhibition ApPOL 90' (DRC-2, concentration 2.5 (unit not given)): 10% | % inhibition ApPOL 90' (DRC-2, concentration 5): -0.305% | % inhibition ApPOL 90' (DRC-2, concentration 10): 34% | % inhibition ApPOL 90' (DRC-2, concentration 20): 52% | % inhibition ApPOL 90' (DRC-2, concentration 40): 75% | % inhibition ApPOL 90' (DRC-2, concentration 80): 82% | % inhibition apPOL 180' (DRC-2, concentration 2.5): 4.6% | % inhibition apPOL 180' (DRC-2, concentration 5): -68% | % inhibition apPOL 180' (DRC-2, concentration 10): 25% | % inhibition apPOL 180' (DRC-2, concentration 20): 41% | % inhibition apPOL 180' (DRC-2, concentration 40): 72% | % inhibition apPOL 180' (DRC-2, concentration 80): 85% | DNA Pol (primary screen value of the library well): 63
